# Entries after “also recorded” stand apart in the source; their conditions may differ.
# What was measured:
# [1] = system: susceptible strain of E. coli; test: Response of pre-rRNA to cefazolin in log phase culture; type: cell-based; details: log phase of growth, within 30 min after addition
# [2] = system: E. coli clinical urine isolate EC103; test: Electrochemical sensor assay of pre-rRNA and mature rRNA in E. coli EC103 cultures spiked with antibiotics; type: cell-based; details: EC103 culture in MH broth, antibiotic added at 150 or 210 min; 25 μg/ml Rifampicin, 25 μg/ml Chloramphenicol, 4 μg/ml Ciprofloxacin, 16 μg/ml Gentamicin; vs culture without antibiotic
# Description: Bacterial Strains and Media. E. coli clinical urine isolate EC103 (Amp^R) was obtained from the University of California-Los Angeles (UCLA) Clinical Microbiology Laboratory with approval from the UCLA and Veterans' Affair Institutional Review Boards and appropriate Health Insurance Portability and Accountability Act exemptions. EC103 was inoculated into Mueller Hinton (MH) broth with 12% glycerol (Becton Dickinson, Sparks, Md.) and stored at -80° C. EC103 was cultured overnight in MH broth with 64 μ[…] (Sigma, St. Louis, Mo.). EC103 was plated on Luria Broth (LB) agar (MOBIO Laboratories Inc., Carlsbad, Calif.) for counting colony-forming units (CFUs). EC103 Growth and Target Copy Number Experiments. Overnight cultures of EC103 were prepared by adding 5 μl of EC103 glycerol stock to 5 ml of MH broth with ampicillin and incubated at 37° C. overnight with shaking. The following day, the EC103 culture was diluted by adding 10 μl of the overnight culture to 100 ml of prewarmed and […] MH broth in a 500 ml flask, followed by incubation at 37° C. with shaking at 250 rpm. Every 30 min, including at 0 min and the overnight culture itself, a 1 ml sample was taken for OD600 measurement and 10-fold serial dilutions (100 μl into 900 μl) were performed in room temperature MH broth. Cell density was determined by plating serial dilutions in triplicate. At each time point, culture samples were transferred to an ice water bath or centrifuged immediately at 4° C. for 3 min at 14,000 rpm. The supernatants were then removed by aspiration, flash frozen in a dry ice-ethanol bath and stored at -80° C. […] Electrochemical detection. […] For thiolated capture probes, disposable 16-sensor bare Au electrode arrays were obtained from GeneFluidics ([…], Calif.). Each sensor of the array consisted of a 2.5 mm diameter central working electrode, surrounded by an Au counter electrode and an Au pseudo-reference electrode. The sensor chip was driven by a computer-controlled Helios multichannel electrochemical workstation (GeneFluidics, […], Calif.). Washing steps were carried out after each application of reagents by applying a stream of deionized H2O to the sensor surface for approximately 2-3 sec followed by 5 sec of drying under a stream of nitrogen. Prior to addition of the first reagent, the bare gold chips were dried as described above. To functionalize the working sensor surface, a fresh mixture of 0.05 μM thiolated capture probe and 300 μM 1,6-hexanedithiol (96%, Sigma, St. Louis, Mo.) was prepared in 10 mM Tris-HCl, 1 mM EDTA and 0.3 M NaCl (pH 8.0) and allowed to stand at room temperature for 10 min. […] This was then combined with the CFU/ml values determined by plating for each time point to generate target molecule number per CFU measurements.
Molecule,drop in the amount of pre-rRNA compared to a culture without the antibiotic [1],effect on mature rRNA level [2],effect on pre-rRNA level [2]
Cc1nnc(SCC2=C(C(=O)O)N3C(=O)[C@@H](NC(=O)Cn4cnnn4)[C@H]3SC2)s1 [cefazolin],one-log drop,,
"O=C(N[C@H](CO)[C@H](O)c1ccc([N+](=O)[O-])cc1)C(Cl)Cl [chloramphenicol, Chloramphenicol]",,decrease of mature rRNA; also recorded: selective decrease in mature rRNA,selective increase in pre-rRNA
Gentamicin,,decrease in the pool of mature rRNA; also recorded: selective decrease in mature rRNA,without affecting the level of pre-rRNA

# Reference: US10370728B2, “Antibiotic susceptibility testing using probes for preribosomal RNA” (THE REGENTS OF THE UNIVERSITY OF CALIFORNIA, priority 2012, dated 2019)
